As usually defined, the IC50 is the midpoint of a concentration-inhibition curve.

Molecules are shown by their SMILES.

The first series deals with RAW264.7. The experiment in a line: Anti-inflammatory activity in mouse RAW264.7 cells assessed as inhibition of lipopolysaccharide-induced nitric oxide production. In kind it is functional, cell-based.
For `C=C[C@]1(C)C=C2C(=O)C[C@H]3C(C)(C)CC[C@H](O)[C@]3(C)[C@H]2CC1`, the IC50 was more than 50 µM.
With `C=C[C@]1(C)C=C2CC[C@H]3C(C)(C)C[C@H](O)[C@H](O)[C@]3(C)[C@H]2CC1`, the IC50 amounted to 40.3 µM.
Same read-out and setting: for `C=C[C@]1(C)C=C2CC[C@H]3C(C)(C)CC[C@H](O)[C@]3(C)[C@H]2CC1` the value was 50 µM; for `C=C[C@]1(C)C=C2CC[C@H]3C(C)(C)C[C@H](O)[C@H](OC(C)=O)[C@]3(C)[C@H]2CC1`, more than 50 µM; for `C=C[C@]1(C)C=C2C[C@@H](O)[C@H]3C(C)(C)C[C@H](O)[C@H](O)[C@]3(C)[C@H]2CC1`, more than 50 µM.
As for `C=C[C@]1(C)C=C2C[C@@H](OC(C)=O)[C@H]3C(C)(C)[C@@H](O)CC(=O)[C@]3(C)[C@H]2[C@@H](O)C1`, the IC50 is more than 50 µM.
The same measure, in the same setting: for `C=C[C@]1(C)C=C2[C@@H](O)C[C@H]3C(C)(C)C[C@H](O)[C@H](O)[C@]3(C)[C@H]2CC1` the value was more than 50 µM.
On the same count and under the same terms, for `C=C[C@]1(C)C=C2CC[C@H]3C(C)(C)[C@H](O)C[C@H](O)[C@]3(C)[C@H]2[C@H](O)C1` the value was 28.1 µM; for `C=C[C@]1(C)C=C2C(=O)C[C@H]3C(C)(C)C[C@H](O)C[C@]3(C)[C@H]2CC1`, more than 50 µM; for `C=C[C@]1(C)C=C2CC[C@H]3C(C)(C)[C@@H](O)C[C@H](O)[C@]3(C)[C@H]2[C@H](O)C1`, more than 50 µM.
As for `C=C[C@]1(C)C=C2CC[C@H]3C(C)(C)CC[C@H](O)[C@]3(C)[C@H]2[C@H](O)C1`, the IC50 came out at 36.7 µM.
Same read-out and setting: for `C=C[C@]1(C)C=C2[C@H](O)C[C@H]3C(C)(C)CC[C@H](O)[C@]3(C)[C@H]2[C@H](O)C1` the value was more than 50 µM; for `C[C@@H]1C[C@H]2[C@@H]3CCC4=CC(=O)C=C[C@]4(C)[C@@]3(F)[C@@H](O)C[C@]2(C)[C@@]1(O)C(=O)CO` [DEXAMETHASONE], 5.5 µM.

In another series the test system is RAW264.7. The experiment in a line: Cytotoxicity against mouse RAW264.7 cells. In kind it is cell-based.
As for `C=C[C@]1(C)C=C2CC[C@H]3C(C)(C)[C@H](O)C[C@H](O)[C@]3(C)[C@H]2[C@H](O)C1`, the Activity entry is “Non-Toxic”.

For the origin of these results see ChEMBL document CHEMBL4342446, “Isopimarane Diterpenoids from the Rhizomes of Kaempferia marginata and Their Potential Anti-inflammatory Activities” (J Nat Prod, 2020).
